Assay results reported in patent US20100184814A1, “Ester Derivatives of Losartan, Methods for Their Preparation, and Uses Thereof” (priority 2009, published 2010).

Experiments:
[1] = background statement on Losartan; cited from earlier work
[2] = Pharmacokinetic study: plasma compound (II) (Losartan) after oral dosing of compounds of formula (I); type: in vivo; conditions: male Kumin mice, fasted, single oral gavage dose 5.8 mg/kg referenced to compound (II)
Experimental: Pharmacokinetic studies. The pharmacokinetics (PK) of compounds of formula (I) as well as Losartan were investigated in male Kumin mice. There were six mice per group and nine groups for this study. All mice were fasted overnight, following a single dose of 5.8 mg/kg referenced to the amount of metabolite, the compound of formula (2) from every compound of formula (1) studied. All mice were given dosing orally by gavage. The dosing vehicle used was propyleneglycol:water (1:1). The mice were fed 4 h post dose. Blood samples were collected at 0, 15, 30, 45 min, 1, 2, 4, 7, 10 and 15 h oral dosing. Approximately […] of blood was collected from the jugular vein in tubes containing EDTA, and plasma was obtained by centrifugation. Plasma samples were stored at −20° C. until analysis. Samples were analyzed for the compound of formula (II), (1-((2′-(2H-tetrazol-5-yl)biphenyl-4-yl)methyl)-2-butyl-4-chloro-1H-imidazol-5-yl)methanol, by LC/MS/MS.

[3] = compound (II) (Losartan) measured in plasma

CCCCc1nc(Cl)c(CO)n1Cc1ccc(-c2ccccc2-c2nn[nH]n2)cc1 [Losartan, (1-((2′-(2H-tetrazol-5-yl)biphenyl-4-yl)methyl)-2-butyl-4-chloro-1H-imidazol-5-yl)methanol]
bioavailability [1]: 25-35%
half-life [1]: 1 to 2 h

CCCCc1nc(Cl)c(COC(=O)CN)n1Cc1ccc(-c2ccccc2-c2nn[nH]n2)cc1 [Compound (118), (S)-(1-((2′-(2H-tetrazol-5-yl)biphenyl-4-yl)methyl)-2-butyl-4-chloro-1H-imidazol-5-yl)methyl 2-aminoacetate]
Bioavailability of compound (II) [2, 3]: 19%
Half-time (T1/2) of compound (II) [2, 3]: 1.9 h
Cmax ([2]; compound (II) (Losartan) measured in plasma by LC/MS/MS, read-out: Maximum Blood Concentration (Cmax) of compound (II)): 504 nM
